Test results reported in ChEMBL document CHEMBL1201862, “PubChem BioAssay data set” (2004).
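Cultured in 96-well plates, cells were exposed to test compound for 48 hours across five concentrations. GI50: concentration for 50% inhibition of growth.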 Active and inactive are the calls of the source. Rule as the data show it: active = GI50 up to about 1.1 µM and inactive = higher.

Key:
Test in all cases: NCI tumour cell line growth inhibition, 48 h
[1] = tested on: UACC-62
[2] = tested on: SF-268
[3] = tested on: UO-31
[4] = tested on: K562
[5] = tested on: TK-10
[6] = tested on: HCT-15
[7] = tested on: HOP-62
[8] = tested on: DMS-114
[9] = tested on: SW-620
[10] = tested on: SK-OV-3
[11] = tested on: NCI-H23
[12] = tested on: HCC 2998
[13] = tested on: OVCAR-4
[14] = tested on: KM-20L2
[15] = tested on: SF-539
[16] = tested on: SN12C
[17] = tested on: XF498
[18] = tested on: EKVX
[19] = tested on: M14
[20] = tested on: 786-0
[21] = tested on: MOLT-4
[22] = tested on: HT-29
[23] = tested on: COLO 205
[24] = tested on: SK-MEL-28
[25] = tested on: CAKI-1
[26] = tested on: RXF 631
[27] = tested on: OVCAR-8
[28] = tested on: A498
[29] = tested on: DLD-1
[30] = tested on: UACC-257
[31] = tested on: NCI-H460
[32] = tested on: U-251
[33] = tested on: IGROV-1
[34] = tested on: A549
[35] = tested on: SF-295
[36] = tested on: LXFL 529
[37] = tested on: M19-MEL
[38] = tested on: HOP-92
[39] = tested on: RPMI-8226
[40] = tested on: LOX IMVI
[41] = tested on: HOP-18
[42] = tested on: CCRF-CEM
[43] = tested on: OVCAR-5
[44] = tested on: SNB-19
[45] = tested on: ACHN
[46] = tested on: OVCAR-3
[47] = tested on: NCI-H226
[48] = tested on: SK-MEL-5
[49] = tested on: SNB-78
[50] = tested on: Malme-3M
[51] = tested on: NCI-H522
[52] = tested on: SR
[53] = tested on: SK-MEL-2
[54] = tested on: RXF 393
[55] = tested on: HL-60
[56] = tested on: Hs-578T
[57] = tested on: BT-549
[58] = tested on: HCT-116
[59] = tested on: MDA-MB-231
[60] = tested on: SNB-75
[61] = tested on: PC-3
[62] = tested on: T47D
[63] = tested on: DMS-273
[64] = tested on: MDA-MB-435
[65] = tested on: MDA-N
[66] = tested on: NCI/ADR-RES
[67] = tested on: KM12
[68] = tested on: DU-145
[69] = tested on: MCF7

OCC12C3C4C1C1C2C3C41CO (configuration not stated)
GI50 [1]: > 100 µM (inactive)
GI50 [2]: > 100 µM (inactive)
GI50 [3]: > 100 µM (inactive)
GI50 [4]: > 100 µM (inactive)
GI50 [5]: > 100 µM (inactive)
GI50 [6]: > 100 µM
GI50 [7]: > 100 µM (inactive)
GI50 [8]: > 100 µM (inactive)
GI50 [9]: > 100 µM (inactive)
GI50 [10]: > 100 µM (inactive)
GI50 [11]: > 100 µM (inactive)
GI50 [12]: > 100 µM (inactive)
GI50 [13]: > 100 µM (inactive)
GI50 [14]: > 100 µM (inactive)
GI50 [15]: > 100 µM (inactive)
GI50 [16]: > 100 µM (inactive)
GI50 [17]: > 100 µM (inactive)
GI50 [18]: > 100 µM (inactive)
GI50 [19]: > 100 µM (inactive)
GI50 [20]: > 100 µM (inactive)
GI50 [21]: > 100 µM (inactive)
GI50 [22]: > 100 µM (inactive)
GI50 [23]: > 100 µM (inactive)
GI50 [24]: > 100 µM (inactive)
GI50 [25]: > 100 µM (inactive)
GI50 [26]: > 100 µM (inactive)
GI50 [27]: > 100 µM (inactive)
GI50 [28]: > 100 µM (inactive)
GI50 [29]: > 100 µM (inactive)
GI50 [30]: > 100 µM (inactive)
GI50 [31]: > 100 µM (inactive)
GI50 [32]: > 100 µM (inactive)
GI50 [33]: > 100 µM (inactive)
GI50 [34]: > 100 µM (inactive)
GI50 [35]: > 100 µM (inactive)
GI50 [36]: > 100 µM (inactive)
GI50 [37]: > 100 µM (inactive)
GI50 [38]: > 100 µM (inactive)
GI50 [39]: > 100 µM (inactive)
GI50 [40]: > 100 µM (inactive)
GI50 [41]: > 100 µM (inactive)
GI50 [42]: > 100 µM (inactive)
GI50 [43]: > 100 µM (inactive)
GI50 [44]: > 100 µM (inactive)
GI50 [45]: > 100 µM (inactive)
GI50 [46]: > 100 µM (inactive)
GI50 [47]: > 100 µM (inactive)
GI50 [48]: > 100 µM (inactive)
GI50 [49]: > 100 µM (inactive)
GI50 [50]: > 100 µM (inactive)

CS(=O)(=O)c1nc(Cl)c(Cl)c(C#N)c1Cl
GI50 [1]: 3.31 µM (inactive)
GI50 [2]: 6.76 µM (inactive)
GI50 [3]: 1.91 µM (inactive)
GI50 [4]: 0.859 µM (active)
GI50 [5]: 3.18 µM (inactive)
GI50 [6]: 1.61 µM
GI50 [51]: 0.322 µM (active)
GI50 [52]: 0.736 µM (active)
GI50 [7]: 19.3 µM (inactive)
GI50 [8]: 5.32 µM (inactive)
GI50 [9]: 1.14 µM (inactive)
GI50 [10]: 6.75 µM (inactive)
GI50 [53]: 5.37 µM (inactive)
GI50 [54]: 1.61 µM (inactive)
GI50 [11]: 1.32 µM (inactive)
GI50 [55]: 1.15 µM (inactive)
GI50 [12]: 14.2 µM (inactive)
GI50 [13]: 1.96 µM (inactive)
GI50 [14]: 6.03 µM (inactive)
GI50 [15]: 4.48 µM (inactive)
GI50 [16]: 2.27 µM (inactive)
GI50 [17]: 3.09 µM (inactive)
GI50 [18]: 6.27 µM (inactive)
GI50 [19]: 1.91 µM (inactive)
GI50 [20]: 1.94 µM (inactive)
GI50 [21]: 0.838 µM (active)
GI50 [22]: 1.97 µM (inactive)
GI50 [23]: 1.45 µM (inactive)
GI50 [24]: 2.12 µM (inactive)
GI50 [25]: 0.984 µM (active)
GI50 [26]: 20.2 µM (inactive)
GI50 [27]: 2.88 µM (inactive)
GI50 [56]: 4.34 µM (inactive)
GI50 [57]: 1.9 µM (inactive)
GI50 [28]: 17.5 µM (inactive)
GI50 [29]: 1.59 µM (inactive)
GI50 [58]: 2.25 µM (inactive)
GI50 [30]: 2.49 µM (inactive)
GI50 [59]: 0.619 µM (active)
GI50 [60]: 9.89 µM (inactive)
GI50 [31]: 11.5 µM (inactive)
GI50 [61]: 5.35 µM (inactive)
GI50 [62]: 2.16 µM (inactive)
GI50 [32]: 4.9 µM (inactive)
GI50 [33]: 6.59 µM (inactive)
GI50 [34]: 18.7 µM (inactive)
GI50 [35]: 16.7 µM (inactive)
GI50 [36]: 1.57 µM (inactive)
GI50 [38]: 1.99 µM (inactive)
GI50 [39]: 2.32 µM (inactive)
GI50 [40]: 1.95 µM (inactive)
GI50 [41]: 6.1 µM (inactive)
GI50 [42]: 0.998 µM (active)
GI50 [63]: 6.68 µM (inactive)
GI50 [64]: 2.01 µM (inactive)
GI50 [65]: 1.83 µM (inactive)
GI50 [66]: 2.25 µM (inactive)
GI50 [43]: 4.39 µM (inactive)
GI50 [44]: 19.8 µM (inactive)
GI50 [45]: 2.6 µM (inactive)
GI50 [46]: 2.08 µM (inactive)
GI50 [47]: 13.2 µM (inactive)
GI50 [67]: 6.97 µM (inactive)
GI50 [68]: 11.4 µM (inactive)
GI50 [48]: 5.12 µM (inactive)
GI50 [49]: 9.91 µM (inactive)
GI50 [69]: 3.42 µM (inactive)
GI50 [50]: 2.3 µM (inactive)

CCOC(=O)C/N=c1\nc(SC)sc2c(C(=O)OCC)nc(Sc3ccccc3)n12
GI50 [1]: > 100 µM (inactive)
GI50 [2]: > 100 µM (inactive)
GI50 [3]: 17.8 µM (inactive)
GI50 [4]: 16.1 µM (inactive)
GI50 [5]: 25.9 µM (inactive)
GI50 [51]: 7.18 µM (inactive)
GI50 [52]: 4.74 µM (inactive)
GI50 [7]: 52.1 µM (inactive)
GI50 [8]: 62.7 µM (inactive)
GI50 [9]: > 100 µM (inactive)
GI50 [10]: > 100 µM (inactive)
GI50 [53]: 58.9 µM (inactive)
GI50 [55]: > 100 µM (inactive)
GI50 [12]: 40.1 µM (inactive)
GI50 [13]: 41.2 µM (inactive)
GI50 [14]: > 100 µM (inactive)
GI50 [16]: 91.4 µM (inactive)
GI50 [17]: 41.2 µM (inactive)
GI50 [18]: 45.1 µM (inactive)
GI50 [19]: > 100 µM (inactive)
GI50 [20]: 21.6 µM (inactive)
GI50 [22]: > 100 µM (inactive)
GI50 [23]: > 100 µM (inactive)
GI50 [25]: 13.4 µM (inactive)
GI50 [26]: 25.3 µM (inactive)
GI50 [27]: 39.3 µM (inactive)
GI50 [29]: 34.2 µM (inactive)
GI50 [58]: 32.1 µM (inactive)
GI50 [30]: 28.6 µM (inactive)
GI50 [33]: 83.2 µM (inactive)
GI50 [34]: > 10 µM (inactive)
GI50 [36]: 14.8 µM (inactive)
GI50 [37]: 34 µM (inactive)
GI50 [38]: 20.8 µM (inactive)
GI50 [39]: 8.41 µM (inactive)
GI50 [40]: 6.76 µM (inactive)
GI50 [41]: > 100 µM (inactive)
GI50 [42]: 8.13 µM (inactive)
GI50 [43]: > 100 µM (inactive)
GI50 [46]: 30.3 µM (inactive)
GI50 [47]: 26 µM (inactive)
GI50 [67]: > 100 µM (inactive)
GI50 [48]: > 100 µM (inactive)
GI50 [50]: 32.6 µM (inactive)
